Converted amounts (≈) assume the structure as drawn.
What was measured:
Format in all cases: functional
[1] = test system: Aphis fabae; assay: Insecticidal activity against Aphis fabae (black bean aphid) infested soybean tender shoots at 0.25 mg/L measured 48 hr post compound dose by modified FAO dip method
[2] = test system: Aphis fabae; assay: Insecticidal activity against Aphis fabae (black bean aphid) infested soybean tender shoots at 0.0625 mg/L measured 48 hr post compound dose by modified FAO dip method
[3] = test system: Mythimna separata; assay: Insecticidal activity against Mythimna separata (Oriental armyworm) fourth-instar larvae reared compound pre-treated corn leaves assessed as insect mortality at 0.25 mg/L measured 2 days post compound dose
[4] = test system: Mythimna separata; assay: Insecticidal activity against fourth-instar larvae of Mythimna separata (Oriental armyworm) reared on compound pre-treated corn leaves assessed as insect mortality at 0.0625 mg/L measured 2 days post compound dose
[5] = test system: Aphis fabae; assay: Insecticidal activity against Aphis fabae (black bean aphid infested soybean tender shoots measured 48 hr post compound dose by modified FAO dip method
[6] = test system: Mythimna separata; assay: Insecticidal activity against Mythimna separata (Oriental armyworm) fourth-instar larvae reared compound pre-treated corn leaves assessed as insect mortality measured 2 days post compound dose
[7] = test system: Aphis fabae; assay: Insecticidal activity against Aphis fabae (black bean aphid) infested soybean tender shoots at 1 mg/L measured 48 hr post compound dose by modified FAO dip method
[8] = test system: Mythimna separata; assay: Insecticidal activity against fourth-instar larvae of Mythimna separata (Oriental armyworm) reared on compound pre-treated corn leaves assessed as insect mortality at 0.03125 mg/L measured 2 days post compound dose
[9] = test system: Tetranychus cinnabarinus; assay: Insecticidal activity against Tetranychus cinnabarinus (carmine spider mite) […] assessed as larvicidal activity at 0.006 mg/L after 48 hr
[10] = test system: Mythimna separata; assay: Insecticidal activity against Mythimna separata (Oriental armyworm) fourth-instar larvae reared compound pre-treated corn leaves assessed as insect mortality at 0.5 mg/L measured 2 days post compound dose
[11] = test system: Aphis fabae; assay: Insecticidal activity against Aphis fabae (black bean aphid) infested soybean tender shoots at 0.125 mg/L measured 48 hr post compound dose by modified FAO dip method
[12] = test system: Mythimna separata; assay: Insecticidal activity against Mythimna separata (Oriental armyworm) fourth-instar larvae reared compound pre-treated corn leaves assessed as insect mortality at 1 mg/L measured 2 days post compound dose
[13] = test system: Mythimna separata; assay: Insecticidal activity against fourth-instar larvae of Mythimna separata (Oriental armyworm) reared on compound pre-treated corn leaves assessed as insect mortality at 0.125 mg/L measured 2 days post compound dose
[14] = test system: Aphis fabae; assay: Insecticidal activity against Aphis fabae (black bean aphid) infested soybean tender shoots at 0.5 mg/L measured 48 hr post compound dose by modified FAO dip method
[15] = test system: Aphis fabae; assay: Insecticidal activity against bean Aphis fabae (black bean aphid) infested soybean tender shoots at 0.03125 mg/L measured 48 hr post compound dose by modified FAO dip method
[16] = test system: Aphis fabae; assay: Insecticidal activity against Aphis fabae (black bean aphid) infested soybean tender shoots at 2 mg/L measured 48 hr post compound dose by modified FAO dip method
[17] = test system: Aphis fabae; assay: Insecticidal activity against Aphis fabae (black bean aphid) infested soybean tender shoots at 10 mg/L measured 48 hr post compound dose by modified FAO dip method
[18] = test system: Aphis fabae; assay: Insecticidal activity against Aphis fabae (black bean aphid) infested soybean tender shoots at 0.625 mg/L measured 48 hr post compound dose by modified FAO dip method
[19] = test system: Mythimna separata; assay: Insecticidal activity against Mythimna separata (Oriental armyworm) fourth-instar larvae reared compound pre-treated corn leaves assessed as insect mortality at 2.5 mg/L measured 2 days post compound dose
[20] = test system: Aphis fabae; assay: Insecticidal activity against Aphis fabae (black bean aphid) infested soybean tender shoots at 2.5 mg/L measured 48 hr post compound dose by modified FAO dip method
[21] = test system: Mythimna separata; assay: Insecticidal activity against Mythimna separata (Oriental armyworm) fourth-instar larvae reared compound pre-treated corn leaves assessed as insect mortality at 0.625 mg/L measured 2 days post compound dose
[22] = test system: Mythimna separata; assay: Insecticidal activity against Mythimna separata (Oriental armyworm) fourth-instar larvae reared compound pre-treated corn leaves assessed as insect mortality at 10 mg/L measured 2 days post compound dose

| Molecule | mortality at 0.25 µg/mL [1] [%] | mortality at 0.0625 µg/mL [2] [%] | mortality at 0.25 µg/mL [3] [%] | mortality at 0.0625 µg/mL [4] [%] | LC50 ([5]; Aphis fabae, 48 h) [µg/mL] | LC50 [6] [µg/mL] | mortality at 1 µg/mL [7] [%] | mortality at 0.03125 µg/mL [8] [%] | mortality at 0.006 µg/mL [9] [%] | mortality at 0.5 µg/mL [10] [%] | mortality at 0.125 µg/mL [11] [%] | mortality at 1 µg/mL [12] [%] | mortality at 0.125 µg/mL [13] [%] | mortality at 0.5 µg/mL [14] [%] | LC90 [5] [µg/mL] | mortality at 10 µg/mL [17] [%] | mortality at 0.625 µg/mL [18] [%] | mortality at 2.5 µg/mL [19] [%] | mortality at 2.5 µg/mL [20] [%] | mortality at 10 µg/mL [22] [%] | other results |
| --- | --- | --- | --- | --- | --- | --- | --- | --- | --- | --- | --- | --- | --- | --- | --- | --- | --- | --- | --- | --- | --- |
| CCC(C)[C@H]1O[C@]2(CC[C@@H]1C)C[C@@H]1C[C@@H](C/C=C(\C)[C@@H](O[C@H]3C[C@H](OC)[C@@H](OC(=O)/C(=N\OC)c4ccccc4)[C@H](C)O3)[C@@H](C)/C=C/C=C3\CO[C@@H]4[C@H](O)C(C)=C[C@@H](C(=O)O1)[C@]34O)O2 (some centres not stated) | 34.2 | 0 | 30.2 | 0 | 0.12 (≈ 0.135 µM) | 0.35 (≈ 0.392 µM) | 100 | 0 | 38.7 | 80 | 3.3 | 100 | 6.3 | 70 |  |  |  |  |  |  |  |
| CCC(C)[C@H]1O[C@]2(CC[C@@H]1C)C[C@@H]1C[C@@H](C/C=C(\C)[C@@H](O[C@H]3C[C@H](OC)[C@@H](OC(=O)Cc4ccccc4)[C@H](C)O3)[C@@H](C)/C=C/C=C3\CO[C@@H]4[C@H](O)C(C)=C[C@@H](C(=O)O1)[C@]34O)O2 (some centres not stated) | 65.8 | 3.3 | 60.3 | 10.1 | 0.07 (≈ 0.0824 µM) | 0.204 (≈ 0.24 µM) | 100 | 0 | 14.3 | 90.2 | 31.2 | 100 | 20.5 | 86.7 | 0.742 (≈ 0.874 µM) |  |  |  |  |  | mortality at 0.03125 µg/mL [15]: 0% |
| IVERMECTIN |  |  |  |  |  | 0.19 |  |  |  |  |  |  |  |  | 0.646 |  |  |  |  |  | mortality [1]: 74.1%; mortality [2]: 53.6%; mortality [16]: 100%; mortality [3]: 66.7%; mortality [4]: 6.4%; LC50 [5]: 0.06 µg/mL; mortality [7]: 93.5%; mortality [8]: 0%; mortality [9]: 57.9%; mortality [10]: 90.9%; mortality [11]: 66.3%; mortality [12]: 100%; mortality [13]: 29.1%; mortality [14]: 89.1% |
| CCC(C)[C@H]1O[C@]2(CC[C@@H]1C)C[C@@H]1C[C@@H](C/C=C(\C)[C@@H](OC(=O)Nc3cccc(C)c3)[C@@H](C)/C=C/C=C3\CO[C@@H]4[C@H](O)C(C)=C[C@@H](C(=O)O1)[C@]34O)O2 (some centres not stated) |  |  |  |  |  |  |  |  | 56.6 |  |  |  |  |  |  | 100 | 86.1 | 76.7 | 98.9 | 98.6 | mortality at 0.625 µg/mL [21]: 43.2% |
| CCC(C)[C@H]1O[C@]2(CC[C@@H]1C)C[C@@H]1C[C@@H](C/C=C(\C)[C@@H](O[C@H]3C[C@H](OC)[C@@H](OC(=O)c4ccc(F)cc4)[C@H](C)O3)[C@@H](C)/C=C/C=C3\CO[C@@H]4[C@H](O)C(C)=C[C@@H](C(=O)O1)[C@]34O)O2 (some centres not stated) |  |  |  |  |  |  |  |  | 9.9 |  |  |  |  |  |  | 100 | 97.1 | 16.7 | 100 | 55.8 | mortality at 0.625 µg/mL [21]: 0% |
| CCC(C)[C@H]1O[C@]2(CC[C@@H]1C)C[C@@H]1C[C@@H](C/C=C(\C)[C@@H](OC(=O)C(C)(C)CC)[C@@H](C)/C=C/C=C3\CO[C@@H]4[C@H](O)C(C)=C[C@@H](C(=O)O1)[C@]34O)O2 (some centres not stated) | 57.6 | 38 | 60 | 0 | 0.15 (≈ 0.219 µM) | 0.25 (≈ 0.365 µM) | 85.4 | 0 | 60.7 | 75.2 | 45.5 | 96.9 | 16.7 | 68.2 |  | 100 |  |  |  | 100 | mortality at 2 µg/mL [16]: 92.9% |

— ChEMBL document CHEMBL3046616, “Design, synthesis, and biological activities of milbemycin analogues” (2011)
